Experimental data: patent US20250325684A1, “POTENT ANTI-CANCER CYCLOTIDES” (University of Southern California, priority 2022, published 2025)
Numbered stars: 1 amine (or outer) side, 2 acyl side, 3 side chain; on linkers, the order of the positions; unused ones are H or OH. Bridge positions count the residues as written; N and C are the ends. Square brackets hold non-standard residues; d marks the D form. Peptide text beside a SMILES is read from it. I, II: the chains in the order shown. X1 = O=C(CCc1cn(CCOCCOCCOCCC(=O)[*:2])nn1)[*:1]; isoGln = NC(=O)[C@H](CCC(=O)[*:2])N[*:1]

Columns and labels:
BxPC-3 = assay: MTT cell viability, BxPC-3 cells; assay type: cell-based, human; details: BxPC-3 pancreatic ductal adenocarcinoma, p53 Mutant
Experimental: (§1) Cell viability assay in several human cancer cell lines (See Tables 1 to 10). Cell lines were cultured in RPMI 1640 (or recommended medium when indicated) medium supplemented with 10% fetal calf serum, penicillin (50 IU/mL) and streptomycin ([…]) at 37° C. in 5% CO2. Cell viability studies was carried using the MTT (3-(4,5-dimethylthiazol-2-yl)-2,5-diphenyltetrazolium bromide) assay as previously described (31). Briefly, ≈2×10^3 CRC cells were be seeded in 96-well microtiter plates in 100 μL RPMI 1640 in the presence of 10% calf serum. […] After 1 h, 210 μL/well of full complemented media was added, the cells were grown for 48 h and then treated with 20 μL of a solution of MTT (5 mg/mL) for 2 h. The medium was discarded and DMSO ([…]) was added to each well and incubated with gentle shaking for 20 min at room temperature. The absorbance at 595 nm of the solution is analyzed using a Tecan Genios Multifunctional Microplate Reader (Tecan System Inc) and the background at 670 nm subtracted. RNA-Seq analysis was performed using state-of-the-art bioinformatics tools. Briefly, raw RNA-Seq reads were mapped to human genome (hg38) using STAR aligner (v2.7.3a). Gencode Release 36 reference was used for annotation. Transcript and gene expression levels were quantified using the IsoEM (37) with default parameters. Counts per million (CPM) method is used for normalization. Differential expression was done using DESeq2 with default parameters. Genes involved in different biological pathways (human) were searched from Geneontology (http://geneontology.org/). Bioinformatics results can be validated by using Partek Flow (v10.0.21.0912), a bioinformatics pipeline developed by Zymo Research (https://www.zymoresearch.com/).
(§2) Cell viability was evaluated using the MTT assay as described above.

NCl-H1299 = assay: MTT cell viability, NCl-H1299 cells; assay type: cell-based, human; details: NCl-H1299 lung large cell carcinoma, p53 Null
Experimental: as §1, §2

HCT116^+/+ = assay: MTT cell viability, HCT116 p53 wild-type cells; assay type: cell-based, human; details: HCT116^+/+ colon carcinoma, p53 WT; MTT; read-out: EC50
Experimental: as §1, §2

CT26 = assay: MTT cell viability, CT26 cells; assay type: cell-based; details: CT26 murine colon cancer, p53 WT
Experimental: as §1, with “Counts per million (CPM) method is used for normalization. Differential expression was done using DESeq2 with default parameters. Genes involved in different biological pathways (human) were searched from Geneontology (http://geneontology.org/). Bioinformatics results can be validated by using Partek Flow (v10.0.21.0912), a bioinformatics pipeline developed by Zymo Research (https://www.zymoresearch.com/).” left out
as §2

U937 = assay: MTT cell viability, U937 cells; assay type: cell-based, human; details: U937 adult acute monocytic leukemia, p53 Mutant
Experimental: as §1, §2

DLD-1 = assay: MTT cell viability, DLD-1 cells; assay type: cell-based, human; details: DLD-1 colon adenocarcinoma, p53 Mutant
Experimental: as §1, with “Counts per million (CPM) method is used for normalization. Differential expression was done using DESeq2 with default parameters. Genes involved in different biological pathways (human) were searched from Geneontology (http://geneontology.org/). Bioinformatics results can be validated by using Partek Flow (v10.0.21.0912), a bioinformatics pipeline developed by Zymo Research (https://www.zymoresearch.com/).” left out
as §2

SW1990 = assay: MTT cell viability, SW1990 cells; assay type: cell-based, human; details: SW1990 pancreatic adenocarcinoma, p53 Mutant (Deletion)
Experimental: as §1, §2

NCl-H1395 = assay: MTT cell viability, NCl-H1395 cells; assay type: cell-based, human; details: NCl-H1395 lung adenocarcinoma, p53 WT
Experimental: as §1, with “Counts per million (CPM) method is used for normalization. Differential expression was done using DESeq2 with default parameters. Genes involved in different biological pathways (human) were searched from Geneontology (http://geneontology.org/). Bioinformatics results can be validated by using Partek Flow (v10.0.21.0912), a bioinformatics pipeline developed by Zymo Research (https://www.zymoresearch.com/).” left out
as §2

NCl-H292 = assay: MTT cell viability, NCl-H292 cells; assay type: cell-based, human; details: NCl-H292 lung mucoepidermoid carcinoma, p53 WT
Experimental: as §1, with “Counts per million (CPM) method is used for normalization. Differential expression was done using DESeq2 with default parameters. Genes involved in different biological pathways (human) were searched from Geneontology (http://geneontology.org/). Bioinformatics results can be validated by using Partek Flow (v10.0.21.0912), a bioinformatics pipeline developed by Zymo Research (https://www.zymoresearch.com/).” left out
as §2

NCl-H522 = assay: MTT cell viability, NCl-H522 cells; assay type: cell-based, human; details: NCl-H522 lung adenocarcinoma, p53 Mutant (Deletion)
Experimental: as §1, §2

MOLM-13 = assay: MTT cell viability, MOLM-13 cells; assay type: cell-based, human; details: MOLM-13 adult acute myeloid leukemia, p53 WT
Experimental: as §1, §2

HL-60 = assay: MTT cell viability, HL-60 cells; assay type: cell-based, human; details: HL-60 adult acute myeloid leukemia, p53 Null
Experimental: as §1, with “Counts per million (CPM) method is used for normalization. Differential expression was done using DESeq2 with default parameters. Genes involved in different biological pathways (human) were searched from Geneontology (http://geneontology.org/). Bioinformatics results can be validated by using Partek Flow (v10.0.21.0912), a bioinformatics pipeline developed by Zymo Research (https://www.zymoresearch.com/).” left out
as §2

NCl-H69 = assay: MTT cell viability, NCl-H69 cells; assay type: cell-based, human; details: NCl-H69 lung small cell carcinoma, p53 Mutant
Experimental: as §1, §2

NCl-H1975 = assay: MTT cell viability, NCl-H1975 cells; assay type: cell-based, human; details: NCl-H1975 lung adenocarcinoma, p53 Mutant
Experimental: as §1, with “Counts per million (CPM) method is used for normalization. Differential expression was done using DESeq2 with default parameters. Genes involved in different biological pathways (human) were searched from Geneontology (http://geneontology.org/). Bioinformatics results can be validated by using Partek Flow (v10.0.21.0912), a bioinformatics pipeline developed by Zymo Research (https://www.zymoresearch.com/).” left out
as §2

HPAF-II = assay: MTT cell viability, HPAF-II cells; assay type: cell-based, human; details: HPAF-II pancreatic ductal adenocarcinoma, p53 Mutant
Experimental: as §1, §2

MSCLC 494 = assay: MTT cell viability, MSCLC 494 cells; assay type: cell-based; details: MSCLC 494 murine small cell lung cancer
Experimental: as §1, §2

NCl-A549 = assay: MTT cell viability, NCl-A549 cells; assay type: cell-based, human; details: NCl-A549 lung adenocarcinoma, p53 WT
Experimental: as §1, §2

LLC-1 = assay: MTT cell viability, LLC-1 cells; assay type: cell-based; details: LLC-1 murine lung cancer, p53 WT
Experimental: as §1, with “Counts per million (CPM) method is used for normalization. Differential expression was done using DESeq2 with default parameters. Genes involved in different biological pathways (human) were searched from Geneontology (http://geneontology.org/). Bioinformatics results can be validated by using Partek Flow (v10.0.21.0912), a bioinformatics pipeline developed by Zymo Research (https://www.zymoresearch.com/).” left out
as §2

MV4-11 = assay: MTT cell viability, MV4-11 cells; assay type: cell-based, human; details: MV4-11 childhood acute monocytic leukemia, p53 WT
Experimental: as §1, §2

NCl-H23 = assay: MTT cell viability, NCl-H23 cells; assay type: cell-based, human; details: NCl-H23 lung adenocarcinoma, p53 Mutant
Experimental: as §1, §2

NCl-H2347 = assay: MTT cell viability, NCl-H2347 cells; assay type: cell-based, human; details: NCl-H2347 lung adenocarcinoma, p53 Mutant
Experimental: as §1, with “Counts per million (CPM) method is used for normalization. Differential expression was done using DESeq2 with default parameters. Genes involved in different biological pathways (human) were searched from Geneontology (http://geneontology.org/). Bioinformatics results can be validated by using Partek Flow (v10.0.21.0912), a bioinformatics pipeline developed by Zymo Research (https://www.zymoresearch.com/).” left out
as §2

Caco-2 = assay: MTT cell viability, Caco-2 cells; assay type: cell-based, human; details: Caco-2 colon adenocarcinoma, p53 Mutant
Experimental: as §1, §2

4T1 = assay: MTT cell viability, 4T1 cells; assay type: cell-based; details: 4T1 murine breast cancer, p53 WT
Experimental: as §1, with “Counts per million (CPM) method is used for normalization. Differential expression was done using DESeq2 with default parameters. Genes involved in different biological pathways (human) were searched from Geneontology (http://geneontology.org/). Bioinformatics results can be validated by using Partek Flow (v10.0.21.0912), a bioinformatics pipeline developed by Zymo Research (https://www.zymoresearch.com/).” left out
as §2

NCl-H526 = assay: MTT cell viability, NCl-H526 cells; assay type: cell-based, human; details: NCl-H526 lung small cell carcinoma, p53 Null
Experimental: as §1, §2

Jurkat = assay: MTT cell viability, Jurkat cells; assay type: cell-based, human; details: Jurkat childhood T acute lymphoblastic leukemia, p53 Mutant
Experimental: as §1, §2

NCl-H1944 = assay: MTT cell viability, NCl-H1944 cells; assay type: cell-based, human; details: NCl-H1944 lung adenocarcinoma, p53 WT
Experimental: as §1, with “Counts per million (CPM) method is used for normalization. Differential expression was done using DESeq2 with default parameters. Genes involved in different biological pathways (human) were searched from Geneontology (http://geneontology.org/). Bioinformatics results can be validated by using Partek Flow (v10.0.21.0912), a bioinformatics pipeline developed by Zymo Research (https://www.zymoresearch.com/).” left out
as §2

| Compound | EC50 (BxPC-3) [µM] | EC50 (NCl-H1299) [µM] | EC50 (HCT116^+/+) [µM] | EC50 (CT26) [µM] | EC50 (U937) [µM] | EC50 (DLD-1) [µM] | EC50 (SW1990) [µM] | EC50 (NCl-H1395) [µM] | EC50 (NCl-H292) [µM] | EC50 (NCl-H522) [µM] | EC50 (MOLM-13) [µM] | EC50 (HL-60) [µM] | EC50 (NCl-H69) [µM] | EC50 (NCl-H1975) [µM] | EC50 (HPAF-II) [µM] | EC50 (MSCLC 494) [µM] | EC50 (NCl-A549) [µM] | EC50 (LLC-1) [µM] | EC50 (MV4-11) [µM] | EC50 (Caco-2) [µM] | further results |
| --- | --- | --- | --- | --- | --- | --- | --- | --- | --- | --- | --- | --- | --- | --- | --- | --- | --- | --- | --- | --- | --- |
| N=C(N)NCCC[C@@H]1NC(=O)[C@@H](CCCNC(=N)N)NC(=O)[C@H](CCCCN)NC(=O)[C@@H](N)CCCCNC(=O)CC[C@@H](C(=O)O)NC(=O)[C@@H](CCCNC(=N)N)NC(=O)[C@H](CCCNC(=N)N)NC(=O)[C@@H](CCCCN)NC(=O)[C@H](CCCCN)NC(=O)[C@@H](CCCNC(=N)N)NC(=O)CNC(=O)[C@@H](CCCNC(=N)N)NC1=O [cTAT] (H-KK[dR]R[dR]G[dR]K[dK]R[dR]E-OH; lactam 1-12; N-terminus and C-terminus assumed) | > 100 | > 100 | > 100 | > 100 | > 100 | > 100 | > 100 | > 100 | > 100 | > 100 | > 100 | > 100 | > 100 | > 100 | > 100 | > 100 | > 100 | > 100 | > 100 | > 100 | EC50 (NCl-H23): > 100 µM; EC50 (NCl-H2347): > 100 µM; EC50 (4T1): > 100 µM; EC50 (NCl-H526): > 100 µM; EC50 (Jurkat): > 100 µM; EC50 (NCl-H1944): > 100 µM |
| I: cyclo(ACICRHDSYCGSGSDGGVCPNLYLLCRRDKDCPG) / II: KK[dR]R[dR]G[dR]K[dK]R[dR][isoGln] (disulfide I:2-I:19, I:4-I:26, I:10-I:32; linker I:30-II:N via X1; lactam II:1-II:C) [Cyclotide 52-2-cTAT] | 10.6 ± 1 |  | 10.9 ± 1.3 |  |  |  | 11.9 ± 1.3 |  |  |  |  |  |  |  | 14.6 ± 1.8 |  |  |  |  | 11.7 ± 0.8 |  |
| COc1ccc(C2=N[C@@H](c3ccc(Cl)cc3)[C@@H](c3ccc(Cl)cc3)N2C(=O)N2CCNC(=O)C2)c(OC(C)C)c1 [Nutlin 3A] | 38.5 ± 5.1 | > 100 |  | 9.8 ± 1.2 | > 50 | > 100 | > 100 | 23.1 ± 5.6 | 19.2 ± 2.9 | > 50 | 1.4 ± 0.1 | 33.3 ± 4.4 | > 50 | > 100 | > 50 | > 100 | 6.6 ± 0.7 | 9.4 ± 1.2 | 0.7 ± 0.1 | > 50 | EC50 (NCl-H23): > 50 µM; EC50 (NCl-H2347): 25.3 ± 5.5 µM; EC50 (4T1): 28.5 ± 8.6 µM; EC50 (NCl-H526): > 100 µM; EC50 (Jurkat): 45.2 ± 2.4 µM; EC50 (NCl-H1944): 22.1 µM |
